Holding throughout (type): functional
Experiment [1] has as its system MGC-803. The experiment is described as follows: Antiproliferative activity against human MGC803 cells at 2 uM after 72 hrs by CCK-8 assay relative to control. The note with it: MGC-803, 72 h. (Tetrazolium assays rely on reduction of a dye to a coloured formazan, in cell work by metabolically active cells.)
Experiment [2] deals with MGC-803. As to the kind of experiment: Antiproliferative activity against human MGC803 cells at 8 uM after 72 hrs by CCK-8 assay relative to control. The note with it: MGC-803, 72 h.
The subject of experiment [3] is A-375. As to the kind of experiment: Antiproliferative activity against human A375 cells at 2 uM after 72 hrs by CCK-8 assay relative to control. As to conditions: A-375, 72 h.
Experiment [4] has as its system A-375. As to the kind of experiment: Antiproliferative activity against human A375 cells at 8 uM after 72 hrs by CCK-8 assay relative to control. The note with it: A-375, 72 h.
For experiment [5], the system named is HeLa. The experiment is described as follows: Antiproliferative activity against human HeLa cells at 2 uM after 72 hrs by CCK-8 assay relative to control.
The subject of experiment [6] is HeLa. As to the kind of experiment: Antiproliferative activity against human HeLa cells at 8 uM after 72 hrs by CCK-8 assay relative to control.

Molecules are shown by their SMILES.

Turning to `Nc1ccccc1NC(=O)c1ccc(CSC(=S)N2CCN(C(c3ccccc3)c3ccccc3)CC2)cc1`, the inhibition at 2 µM with MGC-803 [1] was 9.8%; in the experiment on A-375 [3], 8.7%; in the experiment on HeLa [5], 8%. Also, the inhibition at 8 µM in the experiment with MGC-803 [2] is 9.9%; in the experiment with A-375 [4], 8.4%; with HeLa [6], 13.8%.

Consider `Nc1ccccc1NC(=O)c1ccc(CSC(=S)N2CCN(c3cccnc3)CC2)cc1`, for which the inhibition at 2 µM turned out to be 27.6% in the experiment on MGC-803 [1], 40.5% with A-375 [3] and 66.2% in the experiment with HeLa [5]. For the same compound, the inhibition at 8 µM in the experiment on MGC-803 [2] was found to be 76.9%; in the experiment on A-375 [4] it was 88.8%; in the experiment on HeLa [6], 72.5%.

For the compound `Cc1ccc(N2CCN(C(=S)SCc3ccc(C(=O)Nc4ccccc4N)cc3)CC2)cc1`, the inhibition at 2 µM with MGC-803 [1] stood at 33.4%; with A-375 [3], 25.8%; with HeLa [5] it was 25.3%. Further, the inhibition at 8 µM in the experiment with MGC-803 [2] came out at 19.8%; with A-375 [4], 26.4%; in the experiment with HeLa [6], 24%.

As for `Nc1ccccc1NC(=O)c1ccc(CSC(=S)N2CCN(Cc3ccccn3)CC2)cc1`, the inhibition at 2 µM in the experiment on MGC-803 [1] worked out at 23.4%; in the experiment with A-375 [3] it was 20.7%; in the experiment on HeLa [5] it was 14.2%. Further, the inhibition at 8 µM is 65.2% with MGC-803 [2], 82.4% in the experiment on A-375 [4] and 61.4% in the experiment with HeLa [6].

`Nc1ccccc1NC(=O)c1ccc(CSC(=S)N(Cc2ccccc2)Cc2ccccc2)cc1`: the figures for the inhibition at 2 µM in the experiment with MGC-803 [1], in the experiment with A-375 [3] and in the experiment on HeLa [5] were 11%, 10.9% and 1%, respectively. Moreover, the inhibition at 8 µM was 30.7% in the experiment with MGC-803 [2], 32.5% with A-375 [4] and 18.9% with HeLa [6].

For the compound `Nc1ccccc1NC(=O)c1ccc(CSC(=S)N2CCN(Cc3cccnc3)CC2)cc1`, the inhibition at 2 µM was found to be 37.7% with MGC-803 [1], 31.5% in the experiment with A-375 [3] and 69.7% in the experiment on HeLa [5]. The figures for the inhibition at 8 µM in the experiment on MGC-803 [2], in the experiment on A-375 [4] and in the experiment on HeLa [6] were 64.6%, 89.2% and 78%, respectively.

As for `Nc1ccccc1NC(=O)c1ccc(CSC(=S)N2CCCc3ccccc32)cc1`, the inhibition at 2 µM in the experiment on MGC-803 [1] is 38.5%; in the experiment with A-375 [3], 26.5%; in the experiment with HeLa [5], 26.1%. Further, the inhibition at 8 µM was determined as 87.5% in the experiment with MGC-803 [2], 81.5% in the experiment with A-375 [4] and 35.7% in the experiment with HeLa [6].

Regarding `Nc1ccccc1NC(=O)c1ccc(CSC(=S)N2CCCC2)cc1`, the values for the inhibition at 2 µM in the experiment with MGC-803 [1], in the experiment on A-375 [3] and in the experiment on HeLa [5] were 27%, 30.2% and 51.3%, respectively. In addition, the results for the inhibition at 8 µM in the experiment on MGC-803 [2], in the experiment on A-375 [4] and in the experiment with HeLa [6] were 83.4%, 89.5% and 77.8%, respectively.

As to `Nc1ccccc1NC(=O)c1ccc(CSC(=S)N2CCN(c3ccc(Cl)cc3)CC2)cc1`, the inhibition at 2 µM was determined as 15% with MGC-803 [1], 32.2% in the experiment with A-375 [3] and 51.2% with HeLa [5]. Moreover, the results for the inhibition at 8 µM in the experiment on MGC-803 [2], in the experiment with A-375 [4] and in the experiment with HeLa [6] were 17.2%, 29% and 44.8%, respectively.

Take `COc1ccc(N2CCN(C(=S)SCc3ccc(C(=O)Nc4ccccc4N)cc3)CC2)cc1`: the values for the inhibition at 2 µM in the experiment on MGC-803 [1], with A-375 [3] and with HeLa [5] were 25.3%, 28.1% and 39.4%, respectively. Besides, the inhibition at 8 µM came out at 22.9% in the experiment on MGC-803 [2], 35.9% with A-375 [4] and 52.3% with HeLa [6].

As to `Nc1ccccc1NC(=O)c1ccc(CSC(=S)N2CCc3ccc([N+](=O)[O-])cc32)cc1`, the figures for the inhibition at 2 µM with MGC-803 [1], with A-375 [3] and in the experiment on HeLa [5] were 30.6%, 22.1% and 45.7%, respectively. The inhibition at 8 µM in the experiment with MGC-803 [2] turned out to be 39.6%; in the experiment on A-375 [4], 42%; in the experiment with HeLa [6] it was 62.1%.

As for `Nc1ccccc1NC(=O)c1ccc(CSC(=S)N2CCN(Cc3ccccc3)CC2)cc1`, the values for the inhibition at 2 µM in the experiment with MGC-803 [1], in the experiment with A-375 [3] and in the experiment on HeLa [5] were 18.1%, 10.6% and 20.6%, respectively. For the same compound, the inhibition at 8 µM in the experiment with MGC-803 [2] came out at 19.7%; with A-375 [4] it was 29.3%; in the experiment on HeLa [6], 31.3%.

The inhibition is the percentage by which the read-out fell short of the control. A lower inhibition goes with a weak effect.

(Values after ChEMBL document CHEMBL4251578, “Design, synthesis and biological evaluation of novel 2-aminobenzamides containing dithiocarbamate moiety as histone deacetylase inhibitors and potent antitumor agents” (Eur J Med Chem, 2018).)
